For one assay, the target named is T1, AF4-AF9 interaction (Homo sapiens, UniProt P42568).
T1 construct: made in house; host or cells: GST-AF4 from E. coli; AF9 by coupled in vitro transcription/translation (Promega)
T1 sequence (P42568 211-568): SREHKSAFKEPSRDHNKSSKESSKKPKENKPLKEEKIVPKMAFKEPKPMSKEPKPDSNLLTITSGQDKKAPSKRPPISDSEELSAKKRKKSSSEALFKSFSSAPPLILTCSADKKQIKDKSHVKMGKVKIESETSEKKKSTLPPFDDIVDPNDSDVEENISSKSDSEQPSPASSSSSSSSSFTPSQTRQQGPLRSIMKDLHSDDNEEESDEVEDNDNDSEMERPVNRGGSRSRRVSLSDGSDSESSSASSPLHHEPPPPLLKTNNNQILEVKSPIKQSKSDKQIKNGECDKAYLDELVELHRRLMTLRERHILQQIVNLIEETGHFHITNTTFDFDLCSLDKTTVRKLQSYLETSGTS
Nature of the assay: GST pull-down assay, GST-AF4(749-775) and biotinylated AF9. The format is binding. Here is the method: To determine if the synthetic peptide could disrupt the AF4-AF9 interaction in vitro, and to determine if the peptide disrupted other binding events with AF9, the following assay was performed. In additional to AF4, the carboxy-terminus of AF9 binds at least two other proteins, the Polycomb protein MPc3 and mBCoR, the mouse homolog of the human BCL-6 corepressor protein (Srinivasan 2003 and Hemenway 2001, both cited above). Using a yeast three hybrid assay similar to that described in Example 1, it was previously shown that mBCoR and FMR2 (an AF4 homolog) can simultaneously bind AF9. […] The sequences of human AF4 and AF9 and murine MPc3 and BCoR can be found in the NCBI database under Accession Nos. P51825, P42568, Q9QXV1, and AAN85318, respectively, incorporated by reference herein.
Recombinant proteins consisting of glutathione-S-transferase (GST) fused to either (a) amino acids 749–775 of human AF4 SEQ ID NO: 107, (b) amino acids 202–362 of MPc3 SEQ ID NO: 108 or (c) amino acids 925–1759 of mBCoR SEQ ID NO: 109 were isolated from E. coli. These fusion proteins were immobilized on 50 μl glutathione agarose matrix. (i.e., glutathione Sepharose™ beads). Biotinylated AF9 was synthesized by coupled in vitro transcription and translation (Promega) of a Hind III restriction fragment of human AF9 cDNA. This fragment encodes the C-terminal 368 aa of AF9 SEQ ID NO: 114.
Binding of biotinylated AF9 was performed as previously described (Srinivasan, R. S., et al., 2003, cited above; Hemenway, C. S., et al., Oncogene 2001 20: 3798–3805). Briefly, 25 μl of crude AF4 protein extract was immobilized on glutathione coated 96 well plates (Sigma) followed by extensive washing with TBS containing 0.05% Tween (TBST). […]
After extensive washing with TBST, proteins were resolved by SDS-PAGE and transferred to nitrocellulose. […] Alkaline phosphatase activity was measured by determining the optical density of the samples at 405 nm with a plate spectrophotometer. […]

In the next assay the test system is MOLT-4. Nature of the assay: Annexin-V/PI binding assay (flow cytometry). The format is cell-based. Conditions: MOLT-4, 50 μg/ml. Here is the method: (§1) To test the possibility that growth inhibition of t(4;11) leukemia cells exposed to PFWT is the result of apoptotic cell death, annexin-V labeling of the cell membrane of the leukemic cells examined in Example 5 was used to assess apoptosis as follows (Koopman, G., et al., Blood 1994 84: 1415–1420.). Annexin V binding assays were carried out using a Vibrant™ apoptosis kit (Molecular Probes). […] For annexin V-propidium iodide (PI) staining, cells were harvested, washed once with PBS and resuspended in 100 μl annexin binding buffer. 5 μl annexin V conjugated to Alexa Fluor 488 and 2 μl of 100 μg/ml PI were added to the cell suspension and incubated at room temperature for 15 minutes. The cells were then washed once in annexin binding buffer and resuspended in 400 μl annexin binding buffer. These samples were then analyzed by flow cytometry using Coulter benchtop flow cytometer. The cells were excited by a 488 nm wavelength laser beam and the emission was measured using a 530 nm filter for annexin V and a 575 nm filter for PI.

A further assay relates to MV4-11. The assay can be described thus: Annexin-V/PI binding assay (flow cytometry). Type of assay: cell-based. Conditions: MV4-11, 50 μg/ml. Here is the method: as §1
A general note: In flow cytometry, cells or beads pass a laser one at a time.

A further assay has as its system RS4;11. Nature of the assay: Annexin-V/PI binding assay (flow cytometry). The settings on record: RS4;11, 50 μg/ml. Type of assay: cell-based. Here is the method: as §1
Another assay deals with B1 cells. The assay can be described thus: Cell cycle analysis (PI DNA staining, flow cytometry). Type of assay: cell-based. Conditions: for proportion of cells in G1 / proportion of cells in G2 / proportion of cells in S: G1:S:G2 ratio. Here is the method: Leukemia cells were subjected to cell cycle analyses using a Cellular DNA flow cytrometric analysis kit (Roche) according to manufacturers' protocols to determine if PFWT might also induce cell cycle arrest. B1 cells were treated with peptides as outlined above and fixed. For DNA staining, cells were harvested and washed and resuspended with PBS at a concentration of 10^6 cells/ml. 1 unit/ml of RNase and 50 μg/mI of PI was added to this suspension and incubated at 37° C. for 1 hr and analyzed by flow cytometry using Coulter benchtop flow cytometer.

The structures appear in SMILES notation.

On to `CC[C@H](C)[C@H](NC(=O)[C@H](CCC(N)=O)NC(=O)[C@@H](N)CCCNC(=N)N)C(=O)N[C@@H](CCCCN)C(=O)N[C@@H](Cc1c[nH]c2ccccc12)C(=O)N[C@@H](Cc1ccccc1)C(=O)N[C@@H](CCC(N)=O)C(=O)N[C@@H](CC(N)=O)C(=O)N[C@@H](CCCNC(=N)N)C(=O)N[C@@H](CCCNC(=N)N)C(=O)N[C@@H](CCSC)C(=O)N[C@@H](CCCCN)C(=O)N[C@@H](Cc1c[nH]c2ccccc12)C(=O)N[C@@H](CCCCN)C(=O)N[C@@H](CCCCN)C(=O)N[C@@H](CC(C)C)C(=O)N[C@@H](Cc1c[nH]c2ccccc12)C(=O)N[C@@H](CCC(=O)O)C(=O)N[C@@H](CCCCN)C(=O)N[C@@H](CO)C(=O)N[C@@H](CC(=O)O)C(=O)N[C@@H](CC(C)C)C(=O)N[C@@H](CC(=O)O)C(=O)N[C@@H](CC(C)C)C(=O)N[C@@H](CC(C)C)C(=O)N[C@@H](CO)C(=O)N[C@@H](CCCNC(=N)N)C(=O)N[C@H](C(=O)N1CCC[C@H]1C(=O)O)C(C)C` [PFmut], for which the AF4-AF9 binding result at AF4-AF9 interaction (peptide 10 μg/ml, western blot) is “does not interfere with AF4-AF9 binding”. Further, at AF4-AF9 interaction (peptide 100 μg/ml), the AF4-AF9 binding result is given as “binding was still apparent”. Besides, in the assay on MOLT-4, the “% Total apoptotic cells” value worked out at 6.64% and the “% early apoptotic cells” value was 1.36%. For the same compound, in the assay with MV4-11, the “% Total apoptotic cells” value was found to be 23.16% and the “% early apoptotic cells” value is reported as 8.26%. Also, in the assay with RS4;11, the “% Total apoptotic cells” value came to 7.22% and the “% early apoptotic cells” value was determined as 1.36%. Further, in the assay on B1 cells, the “proportion of cells in G1” value turned out to be 52, the “proportion of cells in G2” value came out at 8 and the “proportion of cells in S” value was 40.

Regarding `CC[C@H](C)[C@H](NC(=O)[C@H](CCCCN)NC(=O)[C@@H](NC(=O)[C@H](Cc1c[nH]c2ccccc12)NC(=O)[C@H](CC(C)C)NC(=O)[C@H](CCCCN)NC(=O)[C@H](CCCCN)NC(=O)[C@H](Cc1c[nH]c2ccccc12)NC(=O)[C@H](CCCCN)NC(=O)[C@H](CCSC)NC(=O)[C@H](CCCNC(=N)N)NC(=O)[C@H](CCCNC(=N)N)NC(=O)[C@H](CC(N)=O)NC(=O)[C@H](CCC(N)=O)NC(=O)[C@H](Cc1ccccc1)NC(=O)[C@H](Cc1c[nH]c2ccccc12)NC(=O)[C@H](CCCCN)NC(=O)[C@@H](NC(=O)[C@H](CCC(N)=O)NC(=O)[C@@H](N)CCCNC(=N)N)[C@@H](C)CC)C(C)C)C(=O)N[C@@H](CC(=O)O)C(=O)N[C@@H](CC(C)C)C(=O)N[C@@H](CC(=O)O)C(=O)N[C@@H](CC(C)C)C(=O)N[C@@H](CC(C)C)C(=O)N[C@@H](CO)C(=O)N[C@@H](CCCNC(=N)N)C(=O)N[C@H](C(=O)N1CCC[C@H]1C(=O)O)C(C)C` [PFWT], the AF4-AF9 binding result at AF4-AF9 interaction (peptide 10 μg/ml, western blot) is “completely blocks AF4-AF9 binding”. Also, in the assay on MOLT-4, the “% Total apoptotic cells” value was 18.8% and the “% early apoptotic cells” value stood at 11.64%. Moreover, in the assay with MV4-11, the “% Total apoptotic cells” value turned out to be 45.3% and the “% early apoptotic cells” value is reported as 28.42%. For the same compound, in the assay on RS4;11, the “% Total apoptotic cells” value is 34.64% and the “% early apoptotic cells” value worked out at 26.18%. Also, in the assay with B1 cells, the “sub-G1 population (of all events)” value came to 51%, the “proportion of cells in G1” value is 47, the “proportion of cells in G2” value amounted to 8 and the “proportion of cells in S” value is reported as 45.

(Values after US7189691B2, “Methods and compositions for treating leukemia” (The Administrators of the Tulane Educational Fund, priority 2004, dated 2007).)
